Data set [1] can be described thus: Acute oral toxicity in male mice, LD50 by Litchfield-Wilcoxon method (Test Example 5). As to conditions: mouse, in vivo, mortality on the seventh day. Here is the method: Compounds of this invention were tested on male mice for acute toxicity by oral administration.
The test system of data set [2] is noxious insects. The settings on record: background statement, known; cited from earlier work.
Data set [3] has as its system warm-blooded animals. As to conditions: background statement, known; cited from earlier work.
The test system of data set [4] is tobacco cutworm (Spodoptera litura). The data set is described as follows: Mortality of third-instar larvae of tobacco cutworm on cabbage (Test Example 1). Type of data set: in vivo. The settings on record: 72 h. How it is done: Ten third-instar larvae of tobacco cutworm (Spodoptera litura) were placed on a cabbage (one-month-old seedling) planted in a pot, and a 50% emulsion of the compound to be tested was diluted to a specified concentration and applied to the leaves of the plant to fully wet them. The test compound of each specified concentration was tested on two pots.

For data set [5], the system named is green rice leafhopper (Nephotettix cincticeps). The data set is described as follows: Mortality of female adults of green rice leafhopper on paddy rice (Test Example 2). Type of data set: in vivo. As to conditions: 72 h. Here is the method:
An emulsion of specified concentration was prepared from a 50% wettable powder of the compound to be tested and applied to the leaves of paddy rice (one-month-old seedlings) planted in a pot to fully wet the leaves. After the emulsion had been dried, the pot was covered with a net cage, into which 10 female adults of green rice leafhopper (Nephotettix cincticeps) were released. The compound of each specified concentration was tested on two pots.

Data set [6] has as its system house fly (Musca domestica). The data set is described as follows: Local application to house fly, LD50 by Probit method (Test Example 4). As to conditions: topical, 24 h. Type of data set: in vivo. How it is done: The compound to be tested was dissolved in a predetermined amount of acetone. The solution was diluted to various concentrations and locally applied to house fly (Musca domestica).

Each structure is given as a SMILES string. “Also recorded” adds a separate entry of the source.

As for `CNC(=O)Oc1cccc2c1OC(C)(C)C2` [carbofuran, 2,3-dihydro-2,2-dimethylbenzofuran-7-yl N-methyl-carbamate], the LD50 at 168 h in data set [1] stood at 5.6 mg/kg. Further, in data set [2], the insecticidal activity result is “high insecticidal activity; also recorded: highest insecticidal activity heretofore known”. In addition, the “toxicity to warm-blooded animals” value in data set [3] is given as “high toxicity to warm-blooded animals”.

In data set [4], `CCCCN(CC#N)SN(C)C(=O)Oc1cccc2c1OC(C)(C)C2` [Example 33, 2,3-dihydro-2,2-dimethylbenzofuran-7-yl N-(N-butyl-N-cyanomethylaminosulfenyl)-N-methyl-carbamate] registered a mortality at 500 ppm of 75%, a mortality at 1000 ppm of 90% and a mortality at 2000 ppm of 100%. In data set [5], this molecule registered a mortality at 200 ppm of 70%, a mortality at 400 ppm of 90% and a mortality at 800 ppm of 100%. The LD50 in data set [6] was 9.1 mg/kg. Further, the LD50 at 168 h in data set [1] stood at 103 mg/kg.

In data set [4], `CCOC(=O)CN(SN(C)C(=O)Oc1cccc2c1OC(C)(C)C2)C(=O)c1ccc(Cl)cc1` [Example 47] displayed a mortality at 500 ppm of 65%, a mortality at 1000 ppm of 80% and a mortality at 2000 ppm of 100%. In data set [5], this molecule showed a mortality at 200 ppm of 60%, a mortality at 400 ppm of 75% and a mortality at 800 ppm of 95%. In data set [6], this molecule displayed an LD50 of 57.8 mg/kg. The LD50 at 168 h in data set [1] was 95 mg/kg.

In data set [4], `CCOC(=O)CN(SN(C)C(=O)Oc1cccc2c1OC(C)(C)C2)C(CC)C(=O)OCC` (stereo not shown) [Example 11] had a mortality at 500 ppm of 70%, a mortality at 1000 ppm of 80% and a mortality at 2000 ppm of 100%. In data set [5], this molecule showed a mortality at 200 ppm of 55%, a mortality at 400 ppm of 80% and a mortality at 800 ppm of 95%. In data set [6], this molecule gave an LD50 of 93.9 mg/kg. In data set [1], this molecule registered a 50% lethal dose (LD50) at 168 h of 93 mg/kg.

With `CC(C)CN(CCC#N)SN(C)C(=O)Oc1cccc2c1OC(C)(C)C2` [Example 40], in data set [4], the mortality at 500 ppm was 75%, the mortality at 1000 ppm amounted to 85% and the mortality at 2000 ppm stood at 100%. In data set [5], the mortality at 200 ppm came out at 70%, the mortality at 400 ppm is 85% and the mortality at 800 ppm came out at 100%. Besides, the LD50 in data set [6] is 37.9 mg/kg. The same molecule came in with an LD50 at 168 h in data set [1] of 103 mg/kg.

`CCOC(=O)CN(SN(C)C(=O)Oc1cccc2c1OC(C)(C)C2)S(=O)(=O)c1ccc(C)cc1` [Example 48]: in data set [4], the mortality at 500 ppm worked out at 65%, the mortality at 1000 ppm was determined as 80% and the mortality at 2000 ppm was determined as 100%. In data set [5], this molecule came in with a mortality at 200 ppm of 60%, a mortality at 400 ppm of 75% and a mortality at 800 ppm of 95%. Further, the 50% lethal dose (LD50) in data set [6] amounted to 58.6 mg/kg. For the same molecule, the LD50 at 168 h in data set [1] turned out to be 80 mg/kg.

Consider `CC(C)N(CC#N)SN(C)C(=O)Oc1cccc2c1OC(C)(C)C2` [Example 34], for which, in data set [4], the mortality at 500 ppm worked out at 75%, the mortality at 1000 ppm is 90% and the mortality at 2000 ppm came out at 100%. In data set [5], this molecule registered a mortality at 200 ppm of 65%, a mortality at 400 ppm of 90% and a mortality at 800 ppm of 100%. Besides, in data set [6], the LD50 turned out to be 16.7 mg/kg. Further, the LD50 at 168 h in data set [1] turned out to be 95 mg/kg.

Regarding `CCCCCCCCN(CC(=O)OCC)SN(C)C(=O)Oc1cccc2c1OC(C)(C)C2` [Example 17], in data set [4], the mortality at 500 ppm is 60%, the mortality at 1000 ppm worked out at 80% and the mortality at 2000 ppm stood at 100%. In data set [5], this molecule showed a mortality at 200 ppm of 55%, a mortality at 400 ppm of 75% and a mortality at 800 ppm of 95%. Also, the LD50 in data set [6] was determined as 42.3 mg/kg. The molecule further displayed an LD50 at 168 h in data set [1] of 69 mg/kg.

In the case of `CN(SN(CC#N)c1ccccc1)C(=O)Oc1cccc2c1OC(C)(C)C2` [Example 35], in data set [4], the mortality at 500 ppm is 65%, the mortality at 1000 ppm was 80% and the mortality at 2000 ppm is 100%. Also, in data set [5], the mortality at 200 ppm turned out to be 60%, the mortality at 400 ppm turned out to be 75% and the mortality at 800 ppm stood at 95%. The molecule further yielded an LD50 in data set [6] of 65.6 mg/kg. The molecule also came in with an LD50 at 168 h in data set [1] of 95 mg/kg.

Take `CCOC(=O)CN(SN(C)C(=O)Oc1cccc2c1OC(C)(C)C2)C(=O)Oc1ccccc1` [Example 50]: in data set [4], the mortality at 500 ppm was 65%, the mortality at 1000 ppm was found to be 80% and the mortality at 2000 ppm was determined as 100%. For the same molecule, in data set [5], the mortality at 200 ppm was 60%, the mortality at 400 ppm was 75% and the mortality at 800 ppm is 95%. Also, the LD50 in data set [6] is 34.7 mg/kg. The same molecule registered an LD50 at 168 h in data set [1] of 95 mg/kg.

In data set [4], `CCOC(=O)CN(SN(C)C(=O)Oc1cccc2c1OC(C)(C)C2)C(=O)OCC` [Example 44, 2,3-dihydro-2,2-dimethylbenzofuran-7-yl N-(N-ethoxycarbonyl-N-ethoxycarbonylmethylaminosulfenyl)-N-methyl-carbamat] had a mortality at 500 ppm of 75%, a mortality at 1000 ppm of 90% and a mortality at 2000 ppm of 100%. In data set [5], this molecule gave a mortality at 200 ppm of 70%, a mortality at 400 ppm of 90% and a mortality at 800 ppm of 100%. Besides, the LD50 in data set [6] stood at 16.2 mg/kg. In addition, in data set [1], the LD50 at 168 h was 128 mg/kg.

As to `CCOC(=O)N(CCC#N)SN(C)C(=O)Oc1cccc2c1OC(C)(C)C2` [Example 51], in data set [4], the mortality at 500 ppm came out at 70%, the mortality at 1000 ppm is 85% and the mortality at 2000 ppm came out at 100%. Also, in data set [5], the mortality at 200 ppm is 65%, the mortality at 400 ppm was found to be 85% and the mortality at 800 ppm came to 100%. In data set [6], this molecule gave an LD50 of 45.3 mg/kg. In addition, the LD50 at 168 h in data set [1] was 88 mg/kg.

In data set [4], `CCOC(=O)CN(Cc1ccc(Cl)cc1)SN(C)C(=O)Oc1cccc2c1OC(C)(C)C2` [Example 20] returned a mortality at 500 ppm of 65%, a mortality at 1000 ppm of 85% and a mortality at 2000 ppm of 100%. In data set [5], this molecule gave a mortality at 200 ppm of 60%, a mortality at 400 ppm of 80% and a mortality at 800 ppm of 100%. The same molecule registered an LD50 in data set [6] of 61.9 mg/kg. The molecule further yielded an LD50 at 168 h in data set [1] of 75 mg/kg.

In data set [4], `CCOC(=O)CN(SN(C)C(=O)Oc1cccc2c1OC(C)(C)C2)C(=O)CC` [Example 43, 2,3-dihydro-2,2-dimethylbenzofuran-7-yl N-(N-propionyl-N-ethoxycarbonylmethylaminosulfenyl)-N-methyl-carbamate] returned a mortality at 500 ppm of 70%, a mortality at 1000 ppm of 85% and a mortality at 2000 ppm of 100%. In data set [5], this molecule registered a mortality at 200 ppm of 60%, a mortality at 400 ppm of 85% and a mortality at 800 ppm of 100%. In addition, the 50% lethal dose (LD50) in data set [6] is 14.4 mg/kg. In addition, the LD50 at 168 h in data set [1] is 43 mg/kg.

On to `CN(SN(CCC#N)C1CCCCC1)C(=O)Oc1cccc2c1OC(C)(C)C2` [Example 42], for which, in data set [4], the mortality at 500 ppm turned out to be 70%, the mortality at 1000 ppm worked out at 85% and the mortality at 2000 ppm was determined as 100%. In data set [5], this molecule showed a mortality at 200 ppm of 65%, a mortality at 400 ppm of 85% and a mortality at 800 ppm of 100%. In addition, in data set [6], the LD50 is 46 mg/kg. This molecule showed an LD50 at 168 h in data set [1] of 88 mg/kg.

In data set [4], `CCCCN(CCC#N)SN(C)C(=O)Oc1cccc2c1OC(C)(C)C2` [Example 39, 2,3-Dihydro-2,2-dimethylbenzofuran-7-yl N-(N-n-butyl-N-cyanoethylaminosulfenyl)-N-methyl-carbamate] showed a mortality at 500 ppm of 75%, a mortality at 1000 ppm of 90% and a mortality at 2000 ppm of 100%. In data set [5], this molecule showed a mortality at 200 ppm of 70%, a mortality at 400 ppm of 90% and a mortality at 800 ppm of 100%. This molecule had an LD50 in data set [6] of 13.7 mg/kg. Also, in data set [1], the LD50 at 168 h came to 110 mg/kg.

In data set [4], `CC(C)OC(=O)CN(CC(=O)OC(C)C)SN(C)C(=O)Oc1cccc2c1OC(C)(C)C2` [Example 4] came in with a mortality at 500 ppm of 60%, a mortality at 1000 ppm of 70% and a mortality at 2000 ppm of 100%. Moreover, in data set [5], the mortality at 200 ppm is 40%, the mortality at 400 ppm was found to be 70% and the mortality at 800 ppm was 100%. In data set [6], the LD50 was 28.9 mg/kg. This molecule registered an LD50 at 168 h in data set [1] of 122 mg/kg.

In data set [4], `CCOC(=O)CCN(CC(C)C)SN(C)C(=O)Oc1cccc2c1OC(C)(C)C2` [Example 30] had a mortality at 500 ppm of 65%, a mortality at 1000 ppm of 85% and a mortality at 2000 ppm of 100%. For the same molecule, in data set [5], the mortality at 200 ppm came out at 60%, the mortality at 400 ppm came out at 80% and the mortality at 800 ppm turned out to be 100%. The molecule also displayed a 50% lethal dose (LD50) in data set [6] of 23.8 mg/kg. This molecule also displayed a median lethal dose (LD50) at 168 h in data set [1] of 133 mg/kg.

These data come from patent US4413005A, “Carbamate derivatives and insecticidal, miticidal or nematocidal compositions containing the same” (priority 1981, dated 1983).
